This is an account of results in ChEMBL document CHEMBL1201862, “PubChem BioAssay data set” (2004).

The target in one experiment is Heat shock protein HSP90 (Homo sapiens, UniProt P07900+P08238). As to the kind of experiment: tumor Hsp90 inhibitor potency, dose response (AID 712). The class given is functional.
The next experiment addresses Large T antigen (Simian virus 40, UniProt P03070). The class given is functional, Betapolyomavirus macacae.
In experiment [1] the target is T1, Replicative DNA helicase DnaB (Mycobacterium tuberculosis, UniProt P9WMR3).
T1 sequence (P9WMR3 whole entry): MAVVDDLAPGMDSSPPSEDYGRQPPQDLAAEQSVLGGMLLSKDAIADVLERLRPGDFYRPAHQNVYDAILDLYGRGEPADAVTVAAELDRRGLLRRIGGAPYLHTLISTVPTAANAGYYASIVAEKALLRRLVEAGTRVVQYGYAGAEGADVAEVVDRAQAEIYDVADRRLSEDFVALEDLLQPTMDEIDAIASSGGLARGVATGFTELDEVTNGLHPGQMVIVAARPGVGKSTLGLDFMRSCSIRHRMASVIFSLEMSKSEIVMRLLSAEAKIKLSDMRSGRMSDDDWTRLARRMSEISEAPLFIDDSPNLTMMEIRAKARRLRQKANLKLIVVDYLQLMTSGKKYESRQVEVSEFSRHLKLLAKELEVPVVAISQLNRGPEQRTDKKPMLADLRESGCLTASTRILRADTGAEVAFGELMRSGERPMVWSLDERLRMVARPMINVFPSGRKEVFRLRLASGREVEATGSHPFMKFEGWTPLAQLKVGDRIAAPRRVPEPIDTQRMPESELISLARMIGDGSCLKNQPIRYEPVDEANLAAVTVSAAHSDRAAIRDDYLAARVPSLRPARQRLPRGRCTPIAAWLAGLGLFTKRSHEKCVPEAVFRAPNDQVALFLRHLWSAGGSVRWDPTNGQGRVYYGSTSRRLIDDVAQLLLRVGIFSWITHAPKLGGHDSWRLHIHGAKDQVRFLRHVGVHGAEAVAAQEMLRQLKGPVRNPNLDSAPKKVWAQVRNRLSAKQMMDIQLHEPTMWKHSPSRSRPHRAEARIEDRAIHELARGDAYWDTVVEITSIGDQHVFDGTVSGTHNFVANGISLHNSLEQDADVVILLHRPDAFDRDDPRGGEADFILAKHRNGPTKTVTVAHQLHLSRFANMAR
The experiment is described as follows: DnaB intein splicing inhibitors, dose response, biochemical, cell-free fluorescence (AID 449749). In kind it is functional.

A further experiment addresses T2, Protein RecA (Mycobacterium tuberculosis, UniProt P9WHJ3).
T2 sequence (P9WHJ3 whole entry): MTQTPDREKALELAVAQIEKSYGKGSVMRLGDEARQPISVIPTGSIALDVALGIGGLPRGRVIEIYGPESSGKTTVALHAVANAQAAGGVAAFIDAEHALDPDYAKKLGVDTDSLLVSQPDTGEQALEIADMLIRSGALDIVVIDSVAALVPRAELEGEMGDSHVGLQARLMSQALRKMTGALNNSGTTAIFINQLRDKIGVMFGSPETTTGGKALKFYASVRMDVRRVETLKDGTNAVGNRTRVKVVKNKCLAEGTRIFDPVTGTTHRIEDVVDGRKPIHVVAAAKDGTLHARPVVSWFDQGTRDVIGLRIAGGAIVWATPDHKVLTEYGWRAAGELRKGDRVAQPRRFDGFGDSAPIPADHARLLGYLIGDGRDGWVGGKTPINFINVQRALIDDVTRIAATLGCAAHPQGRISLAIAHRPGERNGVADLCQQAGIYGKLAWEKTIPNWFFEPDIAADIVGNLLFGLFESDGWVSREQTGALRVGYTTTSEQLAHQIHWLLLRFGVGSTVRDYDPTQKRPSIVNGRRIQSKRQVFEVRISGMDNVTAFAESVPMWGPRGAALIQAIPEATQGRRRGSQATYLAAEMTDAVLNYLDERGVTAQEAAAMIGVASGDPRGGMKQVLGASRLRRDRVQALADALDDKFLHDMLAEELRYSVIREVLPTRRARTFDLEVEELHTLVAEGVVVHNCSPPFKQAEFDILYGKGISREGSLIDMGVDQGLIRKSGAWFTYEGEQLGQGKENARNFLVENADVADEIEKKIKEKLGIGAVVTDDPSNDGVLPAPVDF
The experiment is described as follows: Fluorescence Cell-Free Homogeneous Dose Retest to Identify Inhibitors of RecA-Intein Splicing Activity. [Related pubchem assays (depositor defined):AID2097, AID2223, AID489010, AID492950]. In kind it is functional.

A further experiment concerns the target T3, Protein Tat (Human immunodeficiency virus type 1 group M subtype B (isolate HXB2)(HIV-1), UniProt P04608).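 Note: tat binding to TAR RNA read out by fluorescence polarization.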
T3 sequence (P04608 whole entry): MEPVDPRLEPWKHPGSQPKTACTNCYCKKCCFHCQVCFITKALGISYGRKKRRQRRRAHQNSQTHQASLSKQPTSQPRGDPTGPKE
The class given is functional.

Experiment [2] is described as follows: THP-1 cell cytotoxicity, dose response, cytotoxicity control for Vif-APOBEC3G degradation inhibitor project, THP-1 cells (AID 1117359). Particulars: Human immunodeficiency virus 1, THP-1. The class given is functional.
The target in experiment [3] is E3 ubiquitin-protein ligase Mdm2 (Homo sapiens, UniProt Q00987). The experiment is described as follows: enhancers of MDM2-luciferase reporter signal, concentration-effect titration, project on inhibitors of MDM2 ubiquitin ligase, cellular assay, luminescent readout, 384-well plate format (AID 1394).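 Note: MDM2 E3 inhibitors raise luminescence so EC50 is for signal enhancement.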 In kind it is functional. (In a reporter assay the amount or activity of a reporter protein is the signal.)

Experiment [4] concerns the target T4, Microphthalmia-associated transcription factor (Homo sapiens, UniProt O75030).
T4 sequence (O75030 whole entry): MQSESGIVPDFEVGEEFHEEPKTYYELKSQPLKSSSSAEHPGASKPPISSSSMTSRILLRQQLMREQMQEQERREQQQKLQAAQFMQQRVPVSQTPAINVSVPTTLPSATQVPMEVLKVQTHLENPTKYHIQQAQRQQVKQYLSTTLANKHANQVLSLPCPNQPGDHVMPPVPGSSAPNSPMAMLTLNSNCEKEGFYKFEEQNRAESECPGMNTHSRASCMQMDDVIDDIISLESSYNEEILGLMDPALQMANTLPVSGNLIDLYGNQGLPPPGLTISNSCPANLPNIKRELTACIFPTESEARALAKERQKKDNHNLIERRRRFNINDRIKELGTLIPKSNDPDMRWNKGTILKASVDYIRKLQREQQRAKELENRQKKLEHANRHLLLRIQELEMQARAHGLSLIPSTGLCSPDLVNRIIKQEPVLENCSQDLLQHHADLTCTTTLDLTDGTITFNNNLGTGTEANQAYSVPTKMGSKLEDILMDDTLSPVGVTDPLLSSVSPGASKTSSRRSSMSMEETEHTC
As to the kind of experiment: TRPM1 promoter luciferase signal decrease, dose response, MITF inhibitor project, cell-based, SK-MEL-5, cherry-picked, set 3 (AID 493073).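 Note: SK-MEL-5 melanoma cells with luciferase driven by the MITF target TRPM1 promoter.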 The class given is functional.

Experiment [5] addresses Solute carrier family 12 member 2/member 5 (Homo sapiens, UniProt P55011+Q9H2X9). As to the kind of experiment: KCC2 and NKCC1 inhibition by rubidium flux, cell-based, NKCC1 counter-screen (AID 1734). The class given is functional, HEK293.
A further experiment concerns the target NS3 (Hepatitis C virus, UniProt A3EZJ3). As to the kind of experiment: PubChem AID 2173. More on the design: species or system Hepacivirus hominis.
Experiment [6] addresses Dual specificity tyrosine-phosphorylation-regulated kinase 1A (Rattus norvegicus, UniProt Q63470). The class given is biochemical, Homo sapiens.
A further experiment concerns the target T5, Estrogen receptor (Homo sapiens, UniProt P03372).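 Note: potency for inhibiting coactivator peptide recruitment to the receptor.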
T5 sequence (P03372 whole entry): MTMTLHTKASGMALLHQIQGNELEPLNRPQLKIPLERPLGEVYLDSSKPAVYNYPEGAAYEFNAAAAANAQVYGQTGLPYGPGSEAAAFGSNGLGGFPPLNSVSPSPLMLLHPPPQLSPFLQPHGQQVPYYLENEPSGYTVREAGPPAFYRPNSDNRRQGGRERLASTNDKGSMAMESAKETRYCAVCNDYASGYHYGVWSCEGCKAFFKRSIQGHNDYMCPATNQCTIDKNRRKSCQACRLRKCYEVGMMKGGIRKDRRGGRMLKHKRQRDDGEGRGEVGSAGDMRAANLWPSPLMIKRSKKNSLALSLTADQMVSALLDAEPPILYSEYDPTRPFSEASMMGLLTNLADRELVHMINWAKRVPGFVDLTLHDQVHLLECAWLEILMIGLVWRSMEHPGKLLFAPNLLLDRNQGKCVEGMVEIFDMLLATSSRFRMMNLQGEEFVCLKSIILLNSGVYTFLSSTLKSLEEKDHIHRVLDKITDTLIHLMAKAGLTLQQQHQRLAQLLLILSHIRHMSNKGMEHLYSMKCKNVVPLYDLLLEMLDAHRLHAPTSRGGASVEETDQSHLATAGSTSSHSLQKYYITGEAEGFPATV

For another experiment, the target named is Genome polyprotein (Hepatitis C virus, UniProt Q2Q167). As to the kind of experiment: HCV core protein dimerization inhibitors, dose response, biochemical, TR-FRET (AID 2159).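 Note: blocks dimerization of HCV core protein measured by TR-FRET between tagged core106 pairs.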 Details: species or system Hepacivirus hominis. For orientation: TR-FRET usually uses a lanthanide donor and a delayed reading to cut background.
Experiment [7] has as its target T6, Carboxy-terminal domain RNA polymerase II polypeptide A small phosphatase 1 (Homo sapiens, UniProt Q9GZU7).
T6 sequence (Q9GZU7 whole entry): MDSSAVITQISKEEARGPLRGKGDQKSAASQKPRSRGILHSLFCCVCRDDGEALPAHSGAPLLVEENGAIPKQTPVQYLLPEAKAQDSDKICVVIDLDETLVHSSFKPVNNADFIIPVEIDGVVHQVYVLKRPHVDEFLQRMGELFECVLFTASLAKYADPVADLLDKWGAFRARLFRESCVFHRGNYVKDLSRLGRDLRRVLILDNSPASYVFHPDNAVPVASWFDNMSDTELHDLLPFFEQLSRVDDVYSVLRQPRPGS
As to the kind of experiment: inhibitors of CTDSP1, concentration-response testing, biochemical assay, absorbance-based, actives from ultra-high-throughput screening (AID 540297). In kind it is functional.

The source made the active and inactive calls.

Sequence of Large T antigen (P03070 whole entry): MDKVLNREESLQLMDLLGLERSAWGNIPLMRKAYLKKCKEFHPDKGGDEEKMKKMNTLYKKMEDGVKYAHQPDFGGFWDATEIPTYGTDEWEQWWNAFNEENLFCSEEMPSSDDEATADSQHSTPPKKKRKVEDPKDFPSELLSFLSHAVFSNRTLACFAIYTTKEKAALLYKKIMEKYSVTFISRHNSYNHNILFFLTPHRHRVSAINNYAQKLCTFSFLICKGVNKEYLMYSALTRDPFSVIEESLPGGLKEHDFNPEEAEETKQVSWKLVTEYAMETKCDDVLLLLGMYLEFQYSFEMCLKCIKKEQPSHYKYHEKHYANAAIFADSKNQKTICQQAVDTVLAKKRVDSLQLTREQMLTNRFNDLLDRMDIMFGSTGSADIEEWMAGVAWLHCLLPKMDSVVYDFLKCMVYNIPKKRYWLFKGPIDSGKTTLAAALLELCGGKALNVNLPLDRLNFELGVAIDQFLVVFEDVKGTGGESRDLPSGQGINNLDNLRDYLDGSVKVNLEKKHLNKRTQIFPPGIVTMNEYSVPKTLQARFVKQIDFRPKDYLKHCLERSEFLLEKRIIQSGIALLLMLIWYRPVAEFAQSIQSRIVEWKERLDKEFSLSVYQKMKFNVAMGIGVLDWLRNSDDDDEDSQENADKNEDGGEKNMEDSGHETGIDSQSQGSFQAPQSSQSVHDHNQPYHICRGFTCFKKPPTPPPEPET
Sequence of NS3 (A3EZJ3 whole entry): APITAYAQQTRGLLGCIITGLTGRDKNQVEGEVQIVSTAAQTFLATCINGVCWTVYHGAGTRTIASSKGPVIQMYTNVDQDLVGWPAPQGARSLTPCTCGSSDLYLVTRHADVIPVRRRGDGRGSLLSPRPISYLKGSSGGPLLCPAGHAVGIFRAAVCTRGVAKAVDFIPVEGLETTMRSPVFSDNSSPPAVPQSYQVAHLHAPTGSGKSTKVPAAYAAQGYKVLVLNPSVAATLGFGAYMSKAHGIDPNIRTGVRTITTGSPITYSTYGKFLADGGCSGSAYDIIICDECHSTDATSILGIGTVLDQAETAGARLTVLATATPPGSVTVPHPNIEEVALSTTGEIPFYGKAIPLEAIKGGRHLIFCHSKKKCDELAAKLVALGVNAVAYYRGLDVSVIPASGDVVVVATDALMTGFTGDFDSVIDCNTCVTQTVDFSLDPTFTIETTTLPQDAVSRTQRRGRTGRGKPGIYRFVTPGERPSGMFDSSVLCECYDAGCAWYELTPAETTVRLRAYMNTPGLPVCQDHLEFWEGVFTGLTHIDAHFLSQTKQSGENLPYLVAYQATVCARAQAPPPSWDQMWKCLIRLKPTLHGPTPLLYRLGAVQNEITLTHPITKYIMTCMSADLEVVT
Sequence of Genome polyprotein (Q2Q167 whole entry, the tested form may be a part): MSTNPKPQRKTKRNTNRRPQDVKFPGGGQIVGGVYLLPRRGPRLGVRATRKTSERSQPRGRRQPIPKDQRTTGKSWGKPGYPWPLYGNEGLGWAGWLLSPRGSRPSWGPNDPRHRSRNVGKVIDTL
Sequence of E3 ubiquitin-protein ligase Mdm2 (Q00987 whole entry): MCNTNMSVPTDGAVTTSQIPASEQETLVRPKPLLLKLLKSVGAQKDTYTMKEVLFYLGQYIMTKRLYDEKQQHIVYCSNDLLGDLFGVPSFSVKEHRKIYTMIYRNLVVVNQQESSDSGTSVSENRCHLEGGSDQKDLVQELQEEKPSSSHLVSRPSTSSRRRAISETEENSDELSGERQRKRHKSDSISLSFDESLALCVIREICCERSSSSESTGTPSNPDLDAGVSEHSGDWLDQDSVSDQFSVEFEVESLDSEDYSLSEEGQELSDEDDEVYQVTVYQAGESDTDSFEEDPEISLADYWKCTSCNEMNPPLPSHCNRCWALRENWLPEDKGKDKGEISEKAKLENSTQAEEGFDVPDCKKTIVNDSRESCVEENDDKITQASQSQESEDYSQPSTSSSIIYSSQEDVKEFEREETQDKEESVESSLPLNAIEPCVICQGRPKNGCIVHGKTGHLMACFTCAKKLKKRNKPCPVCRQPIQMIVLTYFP

As for `Oc1ccc(/N=C/c2ccc(O)c(O)c2)cc1`, the IC50 (commonly the concentration at which inhibition is half-maximal) on Heat shock protein HSP90 was 20.6061 µM; at Large T antigen, 9.16 µM (active); at Protein Tat, 15 µM (inconclusive). The AC50 (as a rule, the concentration at which the activity in the assay is half-maximal) in experiment [1] is 10.5 µM (inconclusive). In addition, the EC50 (commonly the concentration at which the effect is half-maximal) on Protein RecA was > 380 µM (inconclusive). Moreover, the CC50 (as a rule, the concentration at which the toxic effect on the cells reaches its halfway point) in experiment [2] was 22.2 µM (active).
Regarding `CC(C)CC(=O)/C=C/n1c(=S)oc2ccccc21`, in [3], the EC50 was 1.2 µM (active). In addition, the AC50 in [4] was 10.5 µM (active).
For the molecule `CCOc1ccc(N2C(=O)C3Sc4nc(O)sc4C(/C=C/c4ccccc4)C3C2=O)cc1` (centres undefined), the IC50 was 0.3 µM (active) in [5] and 15.4 µM (not active) at NS3.
With `CCC1(CC)NC(=O)N(CC(=O)Nc2sc3c(c2C(N)=O)CCC3)C1=O`, in experiment [6], the AC50 was 32.9 µM (active). For the same molecule, the IC50 at Estrogen receptor is < 1.56 µM (active); against Genome polyprotein, > 49.8 µM (not active); in experiment [7], 3.98 µM (active).
